Reference: ChEMBL document CHEMBL5579847, “Synthesis, design, and optimization of a potent and selective series of pyridylpiperazines as promising antimalarial agents” (Eur J Med Chem, 2024)
The source made the active and inactive calls. No cut-off for these calls is given here.

Assays:
Plasmodium falciparum [1] = assay: Antimalarial activity against Plasmodium falciparum 3D7 infected in red blood cells after 96 hrs by SYBR Green I dye based fluorescence assay; format: functional, organism-based, Red blood cell; conditions: 3D7, Erythrocyte
[2] = Selectivity index, ratio of CC50 for cytotoxicity against human HepG2 cell to IC50 for antimalarial activity against Plasmodium falciparum 3D7 infected in red blood cells; format: toxicity, cell-based; conditions: read-out: Ratio CC50/IC50
[3] = biological target: T1, Dihydroorotate dehydrogenase (quinone), mitochondrial (Plasmodium falciparum (isolate 3D7)) (UniProt Q08210); assay: Inhibition of Plasmodium falciparum DHODH at 250 uM relative to control
T1 sequence (whole entry): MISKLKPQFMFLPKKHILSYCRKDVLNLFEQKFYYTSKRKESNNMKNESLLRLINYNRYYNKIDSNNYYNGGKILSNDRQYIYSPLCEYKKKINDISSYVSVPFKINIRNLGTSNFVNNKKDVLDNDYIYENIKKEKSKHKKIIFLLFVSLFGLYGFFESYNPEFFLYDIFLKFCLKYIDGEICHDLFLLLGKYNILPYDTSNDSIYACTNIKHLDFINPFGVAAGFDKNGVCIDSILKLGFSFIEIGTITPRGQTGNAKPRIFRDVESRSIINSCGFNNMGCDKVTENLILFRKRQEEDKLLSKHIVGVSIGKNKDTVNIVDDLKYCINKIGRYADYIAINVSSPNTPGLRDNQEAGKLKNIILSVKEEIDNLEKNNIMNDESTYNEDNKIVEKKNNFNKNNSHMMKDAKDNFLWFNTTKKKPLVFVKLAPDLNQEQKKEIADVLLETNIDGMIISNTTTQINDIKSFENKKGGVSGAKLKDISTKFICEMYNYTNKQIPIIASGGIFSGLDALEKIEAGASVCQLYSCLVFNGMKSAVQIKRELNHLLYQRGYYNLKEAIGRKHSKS

[4] = Cytotoxicity against human HepG2 cells assessed as reduction in cell viability after 48 hrs by WST-1 assay; format: toxicity, cell-based
Plasmodium falciparum [5] = assay: Antimalarial activity against chloroquine-resistant Plasmodium falciparum Dd2 infected in red blood cells after 96 hrs by SYBR Green I dye based fluorescence assay; format: functional, organism-based, Red blood cell; conditions: Dd2, Erythrocyte
[6] = Selectivity index, ratio of CC50 for cytotoxicity against human HepG2 cell to IC50 for antimalarial activity against chloroquine-resistant Plasmodium falciparum Dd2 infected in red blood cells; format: toxicity, cell-based; conditions: read-out: Ratio CC50/IC50
[7] = biological target: T1, Dihydroorotate dehydrogenase (quinone), mitochondrial (Plasmodium falciparum (isolate 3D7)); assay: Inhibition of Plasmodium falciparum DHODH

| SMILES | IC50 (Plasmodium falciparum [1]) | selectivity ratio [2] | inhibition [3] | CC50 at 48 h [4] | IC50 (Plasmodium falciparum [5]) | selectivity ratio [6] | inhibition [7] |
| --- | --- | --- | --- | --- | --- | --- | --- |
| CN1CCN(c2ccc(C(=O)NC3CC3)cn2)CC1 | > 100 µM |  |  |  |  |  |  |
| O=C(NC1CC1)c1ccc(N2CCN(c3ccccc3C(F)(F)F)CC2)nc1 | 1.7 µM | > 59 | 20% | > 100 µM | 0.5 µM | > 200 | inactive |
| COc1ccc(N2CCN(c3ccc(C(=O)NC4CC4)cn3)CC2)cc1 | 2.9 µM |  |  |  | 9.4 µM |  |  |
| O=C(NC1CC1)c1ccc(N2CCN(Cc3ccccc3)CC2)nc1 | 10.9 µM | 1 |  | 12.1 µM | 6.1 µM | 2 |  |
| Cc1ccccc1N1CCN(c2ccc(C(=O)NC3CC3)cn2)CC1 | 1 µM | > 100 | 30% | > 100 µM | 0.7 µM | > 143 |  |
| O=C(NC1CC1)c1ccc(N2CCN(C(=O)c3ccccn3)CC2)nc1 | > 100 µM |  |  |  |  |  |  |
| O=C(NC1CC1)c1ccc(N2CCN(c3cnccn3)CC2)nc1 | 2.8 µM | > 36 |  | > 100 µM | 3.6 µM | > 28 | inactive |
| O=C(NC1CC1)c1ccc(N2CCN(S(=O)(=O)c3ccccc3)CC2)nc1 | 37.2 µM |  |  |  |  |  |  |
| O=C(NC1CC1)c1ccc(N2CCN(c3ccccc3)CC2)nc1 | 6 µM | > 21 |  | > 100 µM | 3.3 µM | > 30 |  |
| O=C(NC1CC1)c1ccc(N2CCN(c3cccc(O)c3)CC2)nc1 | 4.1 µM | 9 |  | 36.2 µM | 7.3 µM | 5 |  |
| Nc1cccnc1N1CCN(c2ccc(C(=O)NC3CC3)cn2)CC1 | 46.4 µM |  |  |  |  |  |  |
| O=C(NC1CC1)c1ccc(N2CCN(c3ccccc3F)CC2)nc1 | 1.3 µM |  |  |  | 2.3 µM |  | inactive |
| O=C(NC1CC1)c1ccc(N2CCN(c3ccc(C(F)(F)F)cn3)CC2)nc1 | 1.1 µM |  |  |  | 1.6 µM |  |  |
| O=C(NC1CC1)c1ccc(N2CCN(c3ncccn3)CC2)nc1 | 5.6 µM |  |  |  | 10.5 µM |  |  |
| O=C(NC1CC1)c1ccc(N2CCN(c3ccccc3Cl)CC2)nc1 | 0.4 µM |  |  |  | 0.7 µM |  |  |
| CCN(CC)CCCC(C)Nc1ccnc2cc(Cl)ccc12 (stereo unspecified) [CHLOROQUINE] | 10.2 µM |  |  |  |  |  |  |
| O=C(NC1CC1)c1ccc(N2CCN(C(=O)c3ccccc3)CC2)nc1 | > 100 µM |  |  |  |  |  |  |
| COc1ccc(CN2CCN(c3ccc(C(=O)NC4CC4)cn3)CC2)cc1 | 6.5 µM | > 15 |  | > 100 µM | 13 µM | > 8 |  |
| O=C(NC1CC1)c1ccc(N2CCN(c3ncccc3[N+](=O)[O-])CC2)nc1 | 5.7 µM | 9 |  | 51.2 µM | 10.2 µM | 5 |  |
| O=C(NC1CC1)c1ccc(N2CCNCC2)nc1 | > 100 µM |  |  |  |  |  |  |
| N#Cc1cccnc1N1CCN(c2ccc(C(=O)NC3CC3)cn2)CC1 | 6.7 µM | > 15 |  | > 100 µM | 15 µM | > 7 |  |
| O=C(NC1CC1)c1ccc(N2CCN(c3ncccc3C(F)(F)F)CC2)nc1 | 1 µM | > 96 |  | > 100 µM | 4.4 µM | > 23 | inactive |
| O=C(NC1CC1)c1ccc(N2CCN(c3ccccn3)CC2)nc1 | 13.9 µM | > 7 |  | > 100 µM |  |  |  |
